The IC50 is the concentration that inhibits the measured activity by half. Read a low IC50 as higher potency.

In one assay the test system is IL-2 production. Kind of assay: Inhibition of IL-2 production in PHA-activated Jurkat cells (ELISA). Format: cell-based. Particulars: Homo sapiens, PHA 2.5 μg/mL, 20 hours, value bins. The method, then: Jurkat cells were placed in a 96 well plate (0.5 million cells per well in 1% FBS medium) then test compounds of this invention were added at different concentrations. After 10 minutes, the cells were activated with PHA (final concentration 2.5 μg/mL) and incubated for 20 hours at 37° C. under CO2. The final volume was 200 μL. Following incubation, the cells were centrifuged and the supernatants collected and stored at −70° C. prior to assaying for IL-2 production. A commercial ELISA kit (IL-2 Eli-pair, Diaclone Research, Besancon, France) was used to detect production of IL-2, from which dose response curves were obtained. The IC50 value was calculated as the concentration at which 50% of maximum IL-2 production after stimulation was inhibited versus a non-stimulation control.
For orientation: An ELISA detects its analyte on a solid surface through an enzyme-linked reagent.
In turn, `Cc1cc2ccccn2c1-c1ccc(NC(=O)c2snnc2C)cc1` [Compound 91, 4-methyl-N-[4-(2-methyl-indolizin-3-yl)-phenyl]-[1,2,3]thiadiazole 5-carboxylic acid amide] displayed an IC50 of 0.1 to 0.5 µM. The same measure, in the same setting: in the case of `Cc1cccc(C(=O)Nc2ccc(-c3cc(C(F)(F)F)ccc3C(F)(F)F)cc2)c1C` [Compound 53, N-(2′,5′-bis-trifluoromethyl-biphenyl-4-yl)-2,3-dimethylbenzamide] it was under 0.1 µM; in that of `Cc1ccccc1C(=O)Nc1ccc(-c2cc(C(F)(F)F)ccc2C(F)(F)F)cc1` [Compound 45], under 0.1 µM. Same read-out and setting: in the case of `O=C(Nc1ccc(-n2c(C(F)(F)F)nnc2C(F)(F)F)cc1)c1cccc(F)c1F` [Compound 32, N-[4-(3,5-Bis-trifluoromethyl-[1,2,4]triazol-4-yl)-phenyl]-2,3-difluoro-benzamide] it was 0.1 to 0.5 µM.

As for `COc1ccccc1C(=O)Nc1ccc(-c2cc(C(F)(F)F)ccc2C(F)(F)F)cc1` [Compound 38, N-(2′,5′-bis-trifluoromethyl-biphenyl-4-yl)-2-methoxy-benzamide], the IC50 lay within 0.1 to 0.5 µM. On the same count and under the same terms, in the case of `COc1ccc(Cl)cc1-c1ccc(NC(=O)c2ccncc2C)cc1` [Compound 65, 3-methyl-pyridine-4-carboxylic acid (2′-methoxy-5′-chlorobiphenyl-4-yl)-amide] it was under 0.1 µM; in that of `Cc1ccc(C)c(-c2ccc(NC(=O)c3cccc(F)c3F)cc2)c1` [Compound 47, N-(2′,5′-dimethyl-biphenyl-4-yl)-2,3-difluorobenzamide], under 0.1 µM. Molecule `Cc1ccsc1C(=O)Nc1ccc(-n2c(C(F)(F)F)nnc2C(F)(F)F)cc1` [Compound 34, 3-Methyl-thiophene-2-carboxylic acid-(4-(3,5-bis-trifluoromethyl-[1,2,4]triazol-4-yl)-phenyl)-amide] came in with an IC50 of 0.1 to 0.5 µM. Same read-out and setting: with `COc1cccc(C(=O)Nc2ccc(-c3cc(C(F)(F)F)ccc3C(F)(F)F)cc2)c1C` [Compound 56, N-(2′,5′-bis-trifluoromethyl-biphenyl-4-yl)-2-methyl-3-methoxybenzamide] the figure was under 0.1 µM; with `O=C(Nc1ccc(-c2ccccc2C(F)(F)F)cc1)c1ccncc1F` [Compound 1, 3-Fluoro-N-(2′-trifluoromethyl-biphenyl-4-yl)-isonicotinamide], 0.1 to 0.5 µM. The same measure, in the same setting: with `Cc1ccccc1-c1ccc(NC(=O)c2ccncc2F)cc1` [Compound 2, 3-Fluoro-N-(2′-methyl-biphenyl-4-yl)-isonicotinamide] the figure was 0.1 to 0.5 µM; with `Cc1ccc(C)c(-c2ccc(NC(=O)c3ccncc3C)cc2)c1` [Compound 70, 3-methyl-pyridine-4-carboxylic acid (2′,5′-dimethylbiphenyl-4-yl)-amide], 0.1 to 0.5 µM; with `Cc1c(Cl)cccc1C(=O)Nc1ccc(-c2cc(C(F)(F)F)ccc2C(F)(F)F)cc1` [Compound 54, N-(2′,5′-bis-trifluoromethyl-biphenyl-4-yl)-2-methyl-3-chlorobenzamide], under 0.1 µM.

`COc1ccc(OC)c(-c2ccc(NC(=O)c3c(F)cccc3F)cc2)c1` [Compound 125, N-(2′,5′-dimethoxy-biphenyl-4-yl)-2,6-difluoro-benzamide] registered an IC50 of under 0.1 µM.

Staying with this assay, now noted: Homo sapiens, PHA, bin 500 nM-1 μM.
`O=C(Nc1ccc(-n2c(-c3cccs3)nnc2C(F)(F)F)cc1)c1cccc(F)c1F` [Compound 35] returned an IC50 of 0.5 to 1 µM.

Still in this assay, the particulars now being: Homo sapiens, PHA, bin >1 μM.
As to `O=C(Nc1ccc(-c2ccccc2C(F)(F)F)cc1)c1cnccn1` [Compound 26, Pyrazine-2-carboxylic acid (2′-trifluoromethyl-biphenyl-4-yl)-amide], the IC50 was over 1 µM.

`O=C(Nc1ccc(-c2ccccc2C(F)(F)F)cc1)c1ccc(F)cc1` [Compound 10, 4-Fluoro-N-(2′-trifluoromethyl-biphenyl-4-yl)-benzamide] registered an IC50 of over 1 µM. The molecule `Cc1nc(C)c(C(=O)Nc2ccc(-c3ccccc3C(F)(F)F)cc2)s1` [Compound 11, 2,4-Dimethyl-thiazole-5-carboxylic acid (2′-trifluoromethyl-biphenyl-4-yl)-amide] showed an IC50 of over 1 µM.

The values above are taken from patent US20050148633A1 (priority 2003, published 2005).
